# Test results from patent publication US9670212B2, “Inhibitors of PI3K-delta and methods of their use and manufacture” (Exelixis, Inc., priority 2010, dated 2017).
# pIC50: −log10 of the molar value.
# Target: PI3K delta (Homo sapiens (Human), UniProt O00329)
# Assay: Luciferase-coupled chemiluminescence kinase assay (KinaseGlo, ATP consumption)
# Type: biochemical
# Protocol: Kinase activity and compound inhibition were investigated using one or more of the assay formats described below. The ATP concentrations used in the various assays were approximately equal to or less than the KM for each of the respective kinases. Dose-response experiments were performed using an intra-plate dilution scheme with 10 different inhibitor concentrations in a 384-well microtiter plate. […] Typically N should approximate unity. Curve fitting was performed using XLFit or ActivityBase. Luciferase-Coupled Chemiluminescence Assay Protocol
# Kinase activity is measured as the percent of ATP consumed following the kinase reaction using luciferase-luciferin-coupled chemiluminescence. […] Kinase reactions were initiated by combining test compounds, kinase, and ATP in a 20 μL volume (6 μL volume for 1536-well plate). The reaction mixture was incubated at ambient temperature for 2 h. Following the kinase reaction, a 20 μL (or 3 μL for 1536-well plate) aliquot of KinaseGlo (Promega) was added and the chemiluminescence signal measured using an EnVision plate reader (Perkin Elmer).
# Sequence of PI3K delta (O00329 whole entry): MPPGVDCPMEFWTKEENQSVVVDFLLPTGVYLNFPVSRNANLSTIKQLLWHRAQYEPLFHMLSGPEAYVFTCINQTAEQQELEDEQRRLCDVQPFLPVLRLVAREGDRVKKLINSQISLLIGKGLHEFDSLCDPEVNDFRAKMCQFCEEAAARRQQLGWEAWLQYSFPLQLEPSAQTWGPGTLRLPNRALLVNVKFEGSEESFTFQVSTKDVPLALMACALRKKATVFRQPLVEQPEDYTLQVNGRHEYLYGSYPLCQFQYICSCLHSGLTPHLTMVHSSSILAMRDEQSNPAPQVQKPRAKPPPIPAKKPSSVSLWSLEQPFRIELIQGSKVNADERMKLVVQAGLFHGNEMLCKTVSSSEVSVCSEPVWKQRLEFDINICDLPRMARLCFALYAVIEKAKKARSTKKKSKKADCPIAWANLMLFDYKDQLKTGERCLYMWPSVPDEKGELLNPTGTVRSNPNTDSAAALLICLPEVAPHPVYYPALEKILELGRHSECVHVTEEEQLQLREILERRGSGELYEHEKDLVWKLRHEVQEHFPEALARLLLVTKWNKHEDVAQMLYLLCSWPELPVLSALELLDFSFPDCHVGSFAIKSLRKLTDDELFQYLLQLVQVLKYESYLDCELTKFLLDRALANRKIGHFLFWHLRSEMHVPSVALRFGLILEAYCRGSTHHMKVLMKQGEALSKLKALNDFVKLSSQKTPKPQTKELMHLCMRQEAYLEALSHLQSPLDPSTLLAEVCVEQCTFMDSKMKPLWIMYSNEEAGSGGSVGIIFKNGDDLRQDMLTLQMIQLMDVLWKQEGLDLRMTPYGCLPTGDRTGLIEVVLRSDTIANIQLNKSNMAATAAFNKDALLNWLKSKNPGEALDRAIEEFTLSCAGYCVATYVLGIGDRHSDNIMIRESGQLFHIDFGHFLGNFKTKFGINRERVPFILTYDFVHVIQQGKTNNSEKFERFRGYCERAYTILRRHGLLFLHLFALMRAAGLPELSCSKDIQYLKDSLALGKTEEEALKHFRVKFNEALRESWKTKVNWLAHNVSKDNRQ
# Sequence of PI3K delta (P27986 whole entry partner): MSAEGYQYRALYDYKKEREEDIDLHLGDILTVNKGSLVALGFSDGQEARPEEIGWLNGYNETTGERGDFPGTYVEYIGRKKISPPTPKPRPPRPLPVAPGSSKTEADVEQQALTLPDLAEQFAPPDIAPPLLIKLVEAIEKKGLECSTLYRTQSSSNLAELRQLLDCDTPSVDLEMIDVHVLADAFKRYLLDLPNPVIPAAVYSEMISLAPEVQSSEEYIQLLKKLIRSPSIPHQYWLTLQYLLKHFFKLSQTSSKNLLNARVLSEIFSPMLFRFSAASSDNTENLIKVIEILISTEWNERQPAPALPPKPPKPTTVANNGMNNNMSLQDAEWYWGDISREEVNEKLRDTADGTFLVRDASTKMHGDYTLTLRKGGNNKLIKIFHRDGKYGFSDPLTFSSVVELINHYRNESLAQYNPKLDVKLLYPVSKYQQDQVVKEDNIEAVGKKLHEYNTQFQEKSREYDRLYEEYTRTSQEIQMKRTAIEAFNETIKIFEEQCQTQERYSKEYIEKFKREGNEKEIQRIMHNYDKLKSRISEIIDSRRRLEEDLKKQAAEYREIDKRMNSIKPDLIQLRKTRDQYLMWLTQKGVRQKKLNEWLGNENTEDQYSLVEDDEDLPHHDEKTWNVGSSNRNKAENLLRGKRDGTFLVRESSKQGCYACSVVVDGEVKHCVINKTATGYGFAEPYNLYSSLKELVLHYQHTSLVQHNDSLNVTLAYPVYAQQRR
row,SMILES,pIC50
1,"Cc1cccc2cc(CNC(=O)c3nccnc3N)c(N(C)CCN(C)C(=O)Cn3ccnc3)nc12 [Compound 85, 3-amino-N-({2-[{2-[(1H-imidazol-1-ylacetyl)(methyl)amino]ethyl}(methyl)amino]-8-methylquinolin-3-yl}methyl)pyrazine-2-carboxamide]",> 7.30
2,"Cc1cccc2cc(CNC(=O)c3nccnc3N)c(N3CCCN(Cc4cncn4C)CC3)nc12 [Compound 63, 3-amino-N-[(8-methyl-2-{4-[(1-methyl-1H-imidazol-5-yl)methyl]-1,4-diazepan-1-yl}quinolin-3-yl)methyl]pyrazine-2-carboxamide]",6.60 to 7.30
3,"Cc1cccc2cc(CNC(=O)c3nccnc3N)c(NCCO)nc12 [Compound 125, 3-amino-N-({2-[(2-hydroxyethyl)amino]-8-methylquinoin-3-yl}methyl)pyrazine-2-carboxamide]",5.82 to 6.30
4,"Cc1ccccc1-n1c(CNC(=O)c2nccnc2Cl)nc2cccc(C)c2c1=O [Compound 159, 3-chloro-N-{[5-methyl-3-(2-methylphenyl)-4-oxo-3,4-dihydroquinazolin-2-yl]methyl}pyrazine-2-carboxamide]",5.82 to 6.30
5,"Cc1cccc2cc(CNC(=O)c3nccnc3N)c(N3CCC(NCC(=O)N(C)C)C3)nc12 (stereo not drawn) [Compound 44, 3-amino-N-{[2-(3-{[2-(dimethylamino)-2-oxoethyl]amino}pyrrolidin-1-yl)-8-methylquinolin-3-yl]methyl}pyrazine-2-carboxamide]",5.82 to 6.30
6,"Cc1cccc2cc(CNC(=O)c3nccnc3N)c(N(C)CCN(C)CC(=O)N3CCOCC3)nc12 [Compound 77, 3-amino-N-{[8-methyl-2-(methyl{2-[methyl(2-morpholin-4-yl-2-oxoethyl)amino]ethyl}amino)quinolin-3-yl]methyl}pyrazine-2-carboxamide]",6.60 to 7.30
7,"Cc1cccc2cc(CNC(=O)c3nccnc3N)c(N3CCNCC3)nc12 [Compound 131, 3-amino-N-[(8-methyl-2-piperazin-1-ylquinolin-3-yl)methyl]pyrazine-2-carboxamide]",5.82 to 6.30
8,"CC(=O)N1CCN(c2nc3ccccc3nc2Nc2cccc(C(N)=O)c2)CC1 [Compound 41, 3-{[3-(4-acetylpiperazin-1-yl)quinoxalin-2-yl]amino}benzamide]",5.82 to 6.30
9,"CNCC(=O)N(C)CCN(C)c1nc2c(C)cccc2cc1CNC(=O)c1nccnc1N [Compound 116, 3-amino-N-{[8-methyl-2-(methyl{2-[methyl(N-methylglycyl)amino]ethyl}amino)quinolin-3-yl]methyl}pyrazine-2-carboxamide]",6.60 to 7.30
10,"Cc1ccccc1-n1c(CNC(=O)c2cccnc2N)nc2cccc(C)c2c1=O [Compound 176, 2-amino-N-{[5-methyl-3-(2-methylphenyl)-4-oxo-3,4-dihydroquinazolin-2-yl]methyl}pyridine-3-carboxamide]",5.82 to 6.30
11,"Cc1cccc2cc(Cn3cnc4c(N)ncnc43)c(N3CCOCC3)nc12 [Compound 177, 9-[(8-methyl-2-morpholin-4-ylquinolin-3-yl)methyl]-9H-purin-6-amine]",6.60 to 7.30
12,"Cc1cccc2cc(CNC(=O)c3nccnc3N)c(N3CCCN(Cc4nccn4C)CC3)nc12 [Compound 62, 3-amino-N-[(8-methyl-2-{4-[(1-methyl-1H-imidazol-2-yl)methyl]-1,4-diazepan-1-yl}quinolin-3-yl)methyl]pyrazine-2-carboxamide]",5.82 to 6.30
13,"Cc1cccc2cc(CNC(=O)c3nccnc3N)c(N(C)CCN(C)c3cnccn3)nc12 [Compound 90, 3-amino-N-{[8-methyl-2-(methyl{2-[methyl(pyrazin-2-yl)amino]ethyl}amino)quinolin-3-yl]methyl}pyrazine-2-carboxamide]",5.82 to 6.30
14,"Cc1cccc2cc(Cn3cnc4c(N)ncnc43)c(N3CCNCC3)nc12 [Compound 172, 9-[(8-methyl-2-piperazin-1-ylquinolin-3-yl)methyl]-9H-purin-6-amine]",6.60 to 7.30
15,"Cc1cccc2cc(CNC(=O)c3nccnc3N)c(N(C)CCN(C)C(=O)CN)nc12 [Compound 115, 3-amino-N-({2-[{2-[glycyl(methyl)amino]ethyl}(methyl)amino]-8-methylquinolin-3-yl}methyl)pyrazine-2-carboxamide]",6.60 to 7.30
16,"Cc1cccc2cc(CNC(=O)c3nccnc3N)c(N3CCC(NC(=O)Cn4ccnn4)C3)nc12 (stereo not drawn) [Compound 45, 3-amino-N-[(8-methyl-2-{3-[(1H-1,2,3-triazol-1-ylacetyl)amino]pyrrolidin-1-yl}quinolin-3-yl)methyl]pyrazine-2-carboxamide]",5.82 to 6.30
17,"Cc1cccc2cc(CNC(=O)c3nccnc3N)c(NCCCN(C)C)nc12 [Compound 138, 3-amino-N-[(2-{[3-(dimethylamino)propyl]amino}-8-methylquinolin-3-yl)methyl]pyrazine-2-carboxamide]",5.82 to 6.30
18,"Cc1cccc2cc(CNC(=O)c3nccnc3N)c(N(C)CCN(C)C(=O)CN3CCCC3)nc12 [Compound 109, 3-amino-N-{[8-methyl-2-(methyl{2-[methyl(pyrrolidin-1-ylacetyl)amino]ethyl}amino)quinolin-3-yl]methyl}pyrazine-2-carboxamide]",6.60 to 7.30
19,"Cc1cccc2cc(Cn3cnc4c(N)ncnc43)c(NC3CCOCC3)nc12 [Compound 165, 3-[(6-amino-9H-purin-9-yl)methyl]-8-methyl-N-(tetrahydro-2H-pyran-4-yl)quinolin-2-amine]",5.82 to 6.30
20,"Cc1cccc2cc(CNC(=O)c3nccnc3N)c(N(C)CCN(C)CC#N)nc12 [Compound 84, 3-amino-N-({2-[{2-[(cyanomethyl)(methyl)amino]ethyl}(methyl)amino]-8-methylquinolin-3-yl}methyl)pyrazine-2-carboxamide]",6.60 to 7.30
21,"Cc1cccc2cc(CNC(=O)c3nccnc3N)c(N3CCCN(C(=O)Cn4ccnc4C)CC3)nc12 [Compound 55, 3-amino-N-[(8-methyl-2-{4-[(2-methyl-1H-imidazol-1-yl)acetyl]-1,4-diazepan-1-yl}quinolin-3-yl)methyl]pyrazine-2-carboxamide]",5.82 to 6.30

# Now from value to compound:
row,pIC50,SMILES
1,6.60 to 7.30,"CN(C)Cc1ccccc1-c1cc2ccccc2nc1CNC(=O)c1nccnc1N [Compound 92, 3-amino-N-[(3-{2-[(dimethylamino)methyl]phenyl}quinolin-2-yl)methyl]pyrazine-2-carboxamide]"
2,> 7.30,"Cc1cccc2cc(CNc3ncnc4[nH]cnc34)c(N(C)CC3CCCN(C)C3)nc12 (stereo not drawn) [Compound 32, N,8-dimethyl-N-[(1-methylpiperidin-3-yl)methyl]-3-[(9H-purin-6-ylamino)methyl]quinolin-2-amine]"
3,> 7.30,"Cc1cccc2cc(CNc3ncnc4[nH]cnc34)c(-c3ccccc3Cl)nc12 [Compound 154, N-{[2-(2-chlorophenyl)-8-methylquinolin-3-yl]methyl}-9H-purin-6-amine]"
4,6.60 to 7.30,"CCCCN(C)c1nc2c(C)cccc2cc1CNc1ncnc2[nH]cnc12 [Compound 26, N-butyl-N,8-dimethyl-3-[(9H-purin-6-ylamino)methyl]quinolin-2-amine]"
5,> 7.30,"Cc1ccccc1-c1cc2ccccc2nc1Cn1nc(I)c2c(N)ncnc21 [Compound 145, 3-iodo-1-{[3-(2-methylphenyl)quinolin-2-yl]methyl}-1H-pyrazolo[3,4-d]pyrimidin-4-amine]"
6,5.82 to 6.30,"Nc1nccnc1C(=O)NCc1nc2ccccc2cc1-c1ccc(CN2CCOCC2)cc1 [Compound 71, 3-amino-N-({3-[4-(morpholin-4-ylmethyl)phenyl]quinolin-2-yl}methyl)pyrazine-2-carboxamide]"
7,6.60 to 7.30,"Cc1ccccc1-c1nc2c(C)cccc2cc1Cn1cnc2c(N)ncnc21 [Compound 189, 9-{[8-methyl-2-(2-methylphenyl)quinolin-3-yl]methyl}-9H-purin-6-amine]"
8,5.82 to 6.30,"Cc1cccc(-c2nc3c(C)cccc3cc2Cn2cnc3c(N)ncnc32)c1C [Compound 180, 9-{[2-(2,3-dimethylphenyl)-8-methylquinolin-3-yl]methyl}-9H-purin-6-amine]"
9,5.82 to 6.30,"Cc1ccccc1-c1c(Cn2cnc3c(N)ncnc32)nc2ccccc2c1C [Compound 168, 9-{[4-methyl-3-(2-methylphenyl)quinolin-2-yl]methyl}-9H-purin-6-amine]"
10,5.82 to 6.30,"Nc1nccnc1C(=O)NCc1nc2ccccc2cc1Br [Compound 93, 3-amino-N-[(3-bromoquinolin-2-yl)methyl]pyrazine-2-carboxamide]"
11,5.82 to 6.30,"Cc1ccccc1-c1cc2ccccc2nc1CNc1ncnc2[nH]nc(Br)c12 [Compound 141, 3-bromo-N-{[3-(2-methylphenyl)quinolin-2-yl]methyl}-1H-pyrazolo[3,4-d]primidin-4-amine]"
12,5.82 to 6.30,"COc1ccccc1NCc1cc2cccc(C)c2nc1-c1ccccc1Cl [Compound 11, N-{[2-(2-chlorophenyl)-8-methylquinolin-3-yl]methyl}-2-(methyloxy)aniline]"
13,6.60 to 7.30,"Cc1cccc2cc(CNC(=O)c3nccnc3N)c(N(C)Cc3cccnc3)nc12 [Compound 87, 3-amino-N-({8-methyl-2-[methyl(pyridin-3-ylmethyl)amino]quinolin-3-yl}methyl)pyrazine-2-carboxamide]"
14,5.82 to 6.30,"Cc1ccccc1-c1cc2ccccc2nc1CNC(=O)c1cncnc1N [Compound 108, 4-amino-N-{[3-(2-methylphenyl)quinolin-2-yl]methyl}pyrimidine-5-carboxamide]"
15,> 7.30,"Cc1cccc2cc(CNc3ncnc4[nH]cnc34)c(N3CCCN(C)CC3)nc12 [Compound 146, N-{[8-methyl-2-(4-methyl-1,4-diazepan-1-yl)quinolin-3-yl]methyl}-9H-purin-6-amine]"
